# Experimental data reported in publication PMC13534789, “Molecular Glue Degraders Enhance CAPRIN1‐Dependent Lysosomal Degradation of APP and Reduce Amyloid β in Alzheimer's Disease” (Advanced Science, 2026).
# Columns and labels:
# CAPRIN1 and APP = biological target: T1, CAPRIN1 and APP (Homo sapiens, UniProt P05067+Q14444); assay: Streptavidin pull-down with biotinylated 0152 in AG27606-N lysates; assay type: binding
# T1 construct: endogenous in cells; host or cells: AG27606-Ns, sAD2.3-Ns (iPSC-derived neurons) and their lysates
# LN229 and HCT116 cells = system: LN229 and HCT116 cells; design: method as in PMID 34644148; settings: cited from earlier work
structure (smiles),measurement,setting,value
"N#Cc1ccc2nc(NC(=O)Nc3cccc(Cl)c3)sc2c1 [HB007, reference compound]",Competition of the 0152-biotin pull-down by excess free compound,CAPRIN1 and APP,not by the inactive analog HB007
same,Cancer cell growth,LN229 and HCT116 cells,inhibits cancer cell growth
